The record followed here is patent US11987588B2, “Modulators of the beta-3 adrenergic receptor useful for the treatment or prevention of heart failure and disorders related thereto” (Arena Pharmaceuticals, Inc., priority 2017, dated 2024).

pIC50: −log10 of the molar value.

For the assay, the target named is Beta-3 Adrenergic Receptor (Homo sapiens (Human), UniProt P13945). Kind of assay: Homogeneous Time-Resolved Fluorescence (HTRF) cAMP antagonist assay, IC50 determination. As to conditions: CHO-K1 cells stably expressing recombinant receptor, isoproterenol at EC90. The format is cell-based. The procedure, abridged: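 Antagonist mode: isoproterenol at its predetermined EC90 added after compound to recombinant CHO-K1 cells in IBMX-containing PBS, 1 h, room temperature. Compounds tested as 5-fold, 10-point dilutions, top final typically 10 or 100 μM. HTRF signal converted to cAMP via standard curve, giving IC50.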
Sequence of Beta-3 Adrenergic Receptor (P13945 whole entry, species assumed): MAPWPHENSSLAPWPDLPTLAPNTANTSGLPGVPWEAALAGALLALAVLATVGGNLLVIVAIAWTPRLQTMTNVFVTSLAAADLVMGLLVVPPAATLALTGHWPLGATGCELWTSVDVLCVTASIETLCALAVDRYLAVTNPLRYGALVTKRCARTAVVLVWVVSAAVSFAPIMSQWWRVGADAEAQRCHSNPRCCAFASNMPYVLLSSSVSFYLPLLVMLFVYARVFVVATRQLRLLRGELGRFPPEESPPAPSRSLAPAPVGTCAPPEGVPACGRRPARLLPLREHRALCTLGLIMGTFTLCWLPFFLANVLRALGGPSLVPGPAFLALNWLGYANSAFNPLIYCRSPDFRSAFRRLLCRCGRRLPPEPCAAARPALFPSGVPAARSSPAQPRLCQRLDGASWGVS
A general note: In TR-FRET formats the signal depends on donor and acceptor labels being close together.
For the molecule `CNS(=O)(=O)c1cccc(OC[C@@H](O)CNC2COC3(CCN(S(=O)(=O)c4ccc5[nH]ncc5c4)CC3)C2)c1` (stereo partly drawn) [Compound 325, 3-((2S)-3-(8-(1H-indazol-5-ylsulfonyl)-1-oxa-8-azaspiro[4.5]decan-3-ylamino)-2-hydroxypropoxy)-N-methylbenzenesulfonamide], the pIC50 – broadly, the IC50 on a negative log10 scale, so that one unit is a factor of ten – was 7.37.
For `CN(C)S(=O)(=O)c1cccc(OC[C@@H](O)CNC2COC3(CCN(S(=O)(=O)c4ccc5c(c4)CCCC5)CC3)C2)c1` (stereo partly drawn) [Compound 253, 3-((2S)-2-hydroxy-3-(8-(5,6,7,8-tetrahydronaphthalen-2-ylsulfonyl)-1-oxa-8-azaspiro[4.5]decan-3-ylamino)propoxy)-N,N-dimethylbenzenesulfonamide], the negative logarithm of the IC50 (pIC50) was 7.65.
Consider `COCCCNS(=O)(=O)c1cccc(OC[C@@H](O)CNC2COC3(CCN(S(=O)(=O)c4ccc5ccccc5c4)CC3)C2)c1` (stereo partly drawn) [Compound 75, 3-((2S)-2-hydroxy-3-(8-(naphthalen-2-ylsulfonyl)-1-oxa-8-azaspiro[4.5]decan-3-ylamino)propoxy)-N-(3-methoxypropyl)benzenesulfonamide], for which the pIC50 was 7.40.
In the case of `CNS(=O)(=O)c1cccc(OC[C@@H](O)CN[C@H]2COC3(CCN(S(=O)(=O)c4cc5c(nc4OC)OCCN5C)CC3)C2)c1` [Compound 476, 3-((S)-2-hydroxy-3-((R)-8-(6-methoxy-1-methyl-2,3-dihydro-1H-pyrido[2,3-b][1,4]oxazin-7-ylsulfonyl)-1-oxa-8-azaspiro[4.5]decan-3-ylamino)propoxy)-N-methylbenzenesulfonamide], the pIC50 is 7.41.
Under `CNS(=O)(=O)c1cccc(OC[C@@H](O)CNC2COC3(CCN(S(=O)(=O)c4ccc(-c5cc(C(F)(F)F)on5)s4)CC3)C2)c1` (stereo partly drawn) [Compound 208, 3-((2S)-2-hydroxy-3-(8-(5-(5-(trifluoromethyl)isoxazol-3-yl)thiophen-2-ylsulfonyl)-1-oxa-8-azaspiro[4.5]decan-3-ylamino)propoxy)-N-methylbenzenesulfonamide] stands 7.19; under `CNS(=O)(=O)c1cccc(OC[C@@H](O)CNC2COC3(CCN(S(=O)(=O)c4ccc5c(Cl)cccc5c4)CC3)C2)c1` (stereo partly drawn) [Compound 223, 3-((2S)-3-(8-(5-chloronaphthalen-2-ylsulfonyl)-1-oxa-8-azaspiro[4.5]decan-3-ylamino)-2-hydroxypropoxy)-N-methylbenzenesulfonamide], 7.87.
Under `CNS(=O)(=O)c1cccc(OC[C@@H](O)CNC2COC3(CCN(S(=O)(=O)c4cccc(-c5sccc5C)c4)CC3)C2)c1` (stereo partly drawn) [Compound 116, 3-((2S)-2-hydroxy-3-(8-(3-(3-methylthiophen-2-yl)phenylsulfonyl)-1-oxa-8-azaspiro[4.5]decan-3-ylamino)propoxy)-N-methylbenzenesulfonamide] stands 7.63; under `NS(=O)(=O)c1cccc(OC[C@@H](O)CN[C@H]2COC3(CCN(S(=O)(=O)c4ccc5c(c4)CCCC5)CC3)C2)c1` [Compound 556, 3-((S)-2-hydroxy-3-((R)-8-(5,6,7,8-tetrahydronaphthalen-2-ylsulfonyl)-1-oxa-8-azaspiro[4.5]decan-3-ylamino)propoxy)benzenesulfonamide], 7.31.
Turning to `CNS(=O)(=O)c1cccc(OC[C@@H](O)CNC2COC3(CCN(S(=O)(=O)c4cc(-c5ccc(CN)cc5)cc5c4OCC5)CC3)C2)c1` (stereo partly drawn) [Compound 358, 3-((2S)-3-(8-(5-(4-(aminomethyl)phenyl)-2,3-dihydrobenzofuran-7-ylsulfonyl)-1-oxa-8-azaspiro[4.5]decan-3-ylamino)-2-hydroxypropoxy)-N-methylbenzenesulfonamide], the pIC50 is 7.79.
Under `CNS(=O)(=O)c1cccc(OC[C@@H](O)CNC2COC3(CCN(S(=O)(=O)c4ccc(OC)nc4)CC3)C2)c1` (stereo partly drawn) [Compound 396, 3-((2S)-2-hydroxy-3-(8-(6-methoxypyridin-3-ylsulfonyl)-1-oxa-8-azaspiro[4.5]decan-3-ylamino)propoxy)-N-methylbenzenesulfonamide] stands 7.52; under `CNS(=O)(=O)c1cccc(OC[C@@H](O)CNC2COC3(CCN(S(=O)(=O)c4cn(C)nc4C(F)(F)F)CC3)C2)c1` (stereo partly drawn) [Compound 152, 3-((2S)-2-hydroxy-3-(8-(1-methyl-3-(trifluoromethyl)-1H-pyrazol-4-ylsulfonyl)-1-oxa-8-azaspiro[4.5]decan-3-ylamino)propoxy)-N-methylbenzenesulfonamide], 7.04; under `CNS(=O)(=O)c1cccc(OC[C@@H](O)CNC2COC3(CCN(S(=O)(=O)c4cccc(-c5cn(C)c(=O)n(C)c5=O)c4)CC3)C2)c1` (stereo partly drawn) [Compound 113, 3-((2S)-3-(8-(3-(1,3-dimethyl-2,4-dioxo-1,2,3,4-tetrahydropyrimidin-5-yl)phenylsulfonyl)-1-oxa-8-azaspiro[4.5]decan-3-ylamino)-2-hydroxypropoxy)-N-methylbenzenesulfonamide], 6.67.
Under `CNS(=O)(=O)c1cccc(OC[C@@H](O)CNC2COC3(CCN(S(=O)(=O)c4ccc(Cl)c5nonc45)CC3)C2)c1` (stereo partly drawn) [Compound 185, 3-((2S)-3-(8-(7-chlorobenzo[c][1,2,5]oxadiazol-4-ylsulfonyl)-1-oxa-8-azaspiro[4.5]decan-3-ylamino)-2-hydroxypropoxy)-N-methylbenzenesulfonamide] stands 8.14; under `NS(=O)(=O)c1cccc(OC[C@@H](O)CN[C@H]2COC3(CCN(S(=O)(=O)c4cccc(Cl)c4)CC3)C2)c1` [Compound 591, 3-((S)-3-((R)-8-(3-chlorophenylsulfonyl)-1-oxa-8-azaspiro[4.5]decan-3-ylamino)-2-hydroxypropoxy)benzenesulfonamide], 6.83.
With `O=S(=O)(NCCF)c1cccc(OC[C@@H](O)CNC2COC3(CCN(S(=O)(=O)c4ccc5ccccc5c4)CC3)C2)c1` (stereo partly drawn) [Compound 356, N-(2-fluoroethyl)-3-((2S)-2-hydroxy-3-(8-(naphthalen-2-ylsulfonyl)-1-oxa-8-azaspiro[4.5]decan-3-ylamino)propoxy)benzenesulfonamide], the pIC50 was 7.77.
Under `CNS(=O)(=O)c1cccc(OC[C@@H](O)CNC2COC3(CCN(S(=O)(=O)c4cccc(-c5cccc(CO)c5)c4)CC3)C2)c1` (stereo partly drawn) [Compound 118, 3-((2S)-2-hydroxy-3-(8-(3′-(hydroxymethyl)biphenyl-3-ylsulfonyl)-1-oxa-8-azaspiro[4.5]decan-3-ylamino)propoxy)-N-methylbenzenesulfonamide] stands 7.62; under `CNS(=O)(=O)c1cccc(OC[C@@H](O)CN[C@H]2COC3(CCN(S(=O)(=O)c4cccc(-c5ccc(OCC#N)cc5)c4)CC3)C2)c1` [Compound 298, 3-((S)-3-((R)-8-(4′-(cyanomethoxy)biphenyl-3-ylsulfonyl)-1-oxa-8-azaspiro[4.5]decan-3-ylamino)-2-hydroxypropoxy)-N-methylbenzenesulfonamide], 7.59.
Under `CNS(=O)(=O)c1cccc(OC[C@@H](O)CNC2COC3(CCN(S(=O)(=O)c4cccc(-c5ccc(CNC(C)C)cc5)c4)CC3)C2)c1` (stereo partly drawn) [Compound 303, 3-((2S)-2-hydroxy-3-(8-(4′-((isopropylamino)methyl)biphenyl-3-ylsulfonyl)-1-oxa-8-azaspiro[4.5]decan-3-ylamino)propoxy)-N-methylbenzenesulfonamide] stands 7.49.
In the case of `CNc1nc2c(cc1S(=O)(=O)N1CCC3(CC1)C[C@@H](NC[C@H](O)COc1cccc(S(=O)(=O)NC)c1)CO3)N(C)CCO2` [Compound 452, 3-((S)-2-hydroxy-3-((R)-8-(1-methyl-6-(methylamino)-2,3-dihydro-1H-pyrido[2,3-b][1,4]oxazin-7-ylsulfonyl)-1-oxa-8-azaspiro[4.5]decan-3-ylamino)propoxy)-N-methylbenzenesulfonamide], the negative logarithm of the IC50 (pIC50) is 7.59.
As for `CNS(=O)(=O)c1cccc(OC[C@@H](O)CN[C@@H]2COC3(CCN(S(=O)(=O)c4cccc(-c5ccc(C6(N)CC6)cc5)c4)CC3)C2)c1` [Compound 446, 3-((S)-3-((S)-8-(4′-(1-aminocyclopropyl)biphenyl-3-ylsulfonyl)-1-oxa-8-azaspiro[4.5]decan-3-ylamino)-2-hydroxypropoxy)-N-methylbenzenesulfonamide], the pIC50 is 7.92.
For the molecule `CNS(=O)(=O)c1cccc(OC[C@@H](O)CNC2COC3(CCN(S(=O)(=O)c4cccc(-c5cn[nH]c5)c4)CC3)C2)c1` (stereo partly drawn) [Compound 64, 3-((2S)-3-(8-(3-(1H-pyrazol-4-yl)phenylsulfonyl)-1-oxa-8-azaspiro[4.5]decan-3-ylamino)-2-hydroxypropoxy)-N-methylbenzenesulfonamide], the pIC50 is 7.95.
Consider `CCOc1ccc(-c2ccc(CN)cc2)cc1S(=O)(=O)N1CCC2(CC1)C[C@@H](NC[C@H](O)COc1cccc(S(N)(=O)=O)c1)CO2` [Compound 567, 3-((S)-3-((R)-8-(4′-(aminomethyl)-4-ethoxybiphenyl-3-ylsulfonyl)-1-oxa-8-azaspiro[4.5]decan-3-ylamino)-2-hydroxypropoxy)benzenesulfonamide], for which the pIC50 is 7.75.
As for `CN1CCOc2ncc(S(=O)(=O)N3CCC4(CC3)C[C@@H](NC[C@H](O)COc3cccc(S(=O)(=O)NCC(F)F)c3)CO4)cc21` [Compound 461, N-(2,2-difluoroethyl)-3-((S)-2-hydroxy-3-((R)-8-(1-methyl-2,3-dihydro-1H-pyrido[2,3-b][1,4]oxazin-7-ylsulfonyl)-1-oxa-8-azaspiro[4.5]decan-3-ylamino)propoxy)benzenesulfonamide], the pIC50 is 7.50.
As for `CN(C)S(=O)(=O)c1cccc(OC[C@@H](O)CNC2COC3(CCN(S(=O)(=O)c4cccc(-c5ccc(OCC#N)cc5)c4)CC3)C2)c1` (stereo partly drawn) [Compound 276, 3-((2S)-3-(8-(4′-(cyanomethoxy)biphenyl-3-ylsulfonyl)-1-oxa-8-azaspiro[4.5]decan-3-ylamino)-2-hydroxypropoxy)-N,N-dimethylbenzenesulfonamide], the negative logarithm of the IC50 (pIC50) is 6.70.
